Laboratory results from publication PMC5442318, “Hundreds of dual-stage antimalarial molecules discovered by a functional gametocyte screen” (Nature Communications, 2017).

What was measured:
[1] = tested on: P. falciparum stage V female gametocytes; assay: P. falciparum female gametocyte activation assay (Pf FGAA), 24 h or 48 h preincubation, Pfs25 expression readout; assay type: cell-based, Plasmodium falciparum NF54; conditions: mean; read-out: Gametocytes mean Pf FGAA IC50
Summary of the method: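 Female activation, triggered by xanthurenic acid and cooling, was scored by imaging Cy3-labelled anti-Pfs25 female gametes after 24 h at 26 °C. Beforehand, purified NF54 stage V gametocytes had been incubated with compound for either 24 h or 48 h (37 °C, 3% O2). Values are pIC50 from full-curve regression.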

HepG2 cells = assay: HepG2 cytotoxicity assay; assay type: cell-based; conditions: mean
Summary of the method: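 Cell viability is measured by CellTiter-Glo luminescence. Signal is developed at room temperature and read 10 min after adding the reagent, with plates and reagent first equilibrated for 30 min.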

[2] = tested on: P. falciparum asexual blood stages; conditions: TCAMS data; ref 1 (Gamo et al., 2010); read-out: Pf Asexual blood stages XC50; cited from earlier work
[3] = tested on: P. falciparum stages IV–V gametocytes; assay: Gametocytocidal ATP-depletion assay (gametocyte ATP bioluminescence); assay type: cell-based, Plasmodium falciparum
Summary of the method: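 Read-out is luciferase luminescence of parasite ATP (BacTiter-Glo), standing in for viability. Double-purified mature stage IV–V gametocytes, 12,500 per well, were exposed 48 h at 37 °C in low-O2 gas; screening concentration 2 μM.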

Row | SMILES | IC50 [1] [µM] | HepG2 cells mean TOX50 (HepG2 cells) [µM] | IC50 [2] [µM] | Gametocytes mean ATP inhibition at 2µM (%) [3] [%]
1 | COc1cc(/C=C(\C2=NC(=O)CS2)c2nc3cccnc3n2C)ccc1O [TCMDC-135917] | 0.72 | 21.14 | 1 | 48.81
2 | CCn1c(-c2nonc2N)nc2c(-c3cccc(NC(=O)Nc4ccc(C(F)(F)F)cc4)c3)ncc(OCCCN)c21.O=C(O)C(F)(F)F [TCMDC-136179] | 0.91 | 5.62 | 1.05 | -5.44
3 | CCn1c(-c2nonc2N)nc2c(-c3cccc(NC(=O)Nc4cccc(Cl)c4)c3)ncc(OCCCN)c21.O=C(O)C(F)(F)F [TCMDC-136193] | 1.18 | 80.36 | 0.94 | -8.58
4 | Cl.c1ccc2c(C3CCN(CCCCOc4ccc5c(c4)CCN(CC4CC4)CC5)CC3)c[nH]c2c1 [TCMDC-136244] | 1.15 | 5.15 | 0.98 | -6.50
5 | COc1ccc(Nc2nccc(-c3ccc4ccnc(NCCCCN)c4c3)n2)cc1 [TCMDC-136642] | 1.51 | 14.29 | 0.75 | 21.11
6 | Cc1cc(OCCN2CCCCC2)ccc1NC(=O)c1cccc2c(=O)n(Cc3ccc(Cl)cc3)cnc12 [TCMDC-136727] | 1.4 | 4.17 | 1.05 | 13.25
7 | CC(C)NCc1ccc(OCc2cccc(COc3ccc(CNC(C)C)cc3I)c2)c(I)c1.Cl [TCMDC-137259] | 1.32 | 1.64 | 0.09 | 81.19
8 | CCCCOc1ccc(CNCCCCCCNCc2ccc(OCCCC)c3ccccc23)c2ccccc12.CS(=O)(=O)O [TCMDC-137281] | 0.4 | 2.29 | 1.13 | 94.34
9 | CS(=O)(=O)O.FC(F)(F)COc1ccc(CCNCCCCNCCc2ccc(OCC(F)(F)F)c3ccccc23)c2ccccc12 [TCMDC-137282] | 0.2 | 1.66 | 0.65 | 91.27
10 | CS(=O)(=O)O.FC(F)(F)COc1ccc2ccccc2c1CCNCCCCNCCc1c(OCC(F)(F)F)ccc2ccccc12 [TCMDC-137317] | 1.01 | 2.09 | 0.43 | 88.24
11 | COc1cc2c(cc1CCNCCCCNCCc1cc3c(cc1OC)CCCC3)CCCC2.CS(=O)(=O)O [TCMDC-137319] | 0.89 | 1.86 | 1 | 88.42
12 | COc1ccc2c(c1CCNCCCCNCCc1c(OC)ccc3c1CCCC3)CCCC2.CS(=O)(=O)O [TCMDC-137324] | 0.64 | 1.68 | 0.38 | 95.49
13 | C=CCOc1ccc2ccccc2c1CNCCCCCCNCc1c(OCC=C)ccc2ccccc12.CS(=O)(=O)O [TCMDC-137340] | 0.7 | 1.93 | 0.86 | 58.99
14 | Cl.c1ccc2c(Nc3ccc(Cc4ccc(Nc5c6ccccc6nc6ccccc56)cc4)cc3)c3ccccc3nc2c1 [TCMDC-137354] | 1.04 | 3.85 | 0.16 | -29.34
15 | Br.C/C=C/C=C/C1=NCCc2cc(OCCC)ccc21 [TCMDC-137442] | 1.3 | 18.29 | 0.91 | 30.75
16 | Cl.N=C(NCCCCC1CCCCC1)c1cccc(C(=N)NCCCCC2CCCCC2)n1 [TCMDC-137452] | 1.05 | 1.82 | 0.4 | 95.86
17 | CC(CNC(=N)c1cccc(C(=N)NCC(C)Oc2cccc(C3CCCCC3)c2)n1)Oc1cccc(C2CCCCC2)c1.Cl (centres unmarked) [TCMDC-137455] | 1.27 | 2.16 | 0.92 | 92.56
18 | N=C(NCC1CC1c1ccccc1)c1cccc(C(=N)NCC2CC2c2ccccc2)n1 (centres unmarked) [TCMDC-137456] | 1.89 | 6.21 | 1.76 | 24.65
19 | CCCCN(CCCC)CCCCNc1c2ccc(Cl)cc2nc2ccc(OC)cc12.Cl [TCMDC-137460] | 1.97 | 4.73 | 0.18 | 11.49

Row | SMILES | IC50 [1] [µM] | HepG2 cells mean TOX50 (HepG2 cells) [µM] | IC50 [2] [µM] | Gametocytes mean ATP inhibition at 2µM (%) [3] [%]
20 | COc1cc(CNCCCCCCNCc2cc(OC)c3ccccc3c2OC)c(OC)c2ccccc12.CS(=O)(=O)O [TCMDC-137502] | 1.67 | 3.67 | 0.7 | 1.18
21 | Clc1ccc(/N=C(/NCCCCCCCN/C(=N\c2ccc(Cl)cc2)Nc2ccc(Cl)cc2)Nc2ccc(Cl)cc2)cc1 [TCMDC-137529] | 0.58 | 2.00 | 0.32 | 15.83
22 | COc1ccc(CNCCCCCCNCc2ccc(OC)c3ccccc23)c2ccccc12.Cl [TCMDC-137631] | 0.72 | 1.82 | 0.58 | 16.64
23 | CN1CCN(CCNc2c3ccccc3nc3c2ccc2ccccc23)CC1.Cl [TCMDC-137723] | 3.49 | 5.07 | 0.61 | 67.71
24 | COc1ccc2nc(-c3ccccc3)cc(NCCCNc3cc(-c4ccccc4)nc4ccc(OC)cc34)c2c1.Cl [TCMDC-137734] | 5.6 | 70.79 | 0.12 | 2.17
25 | Cl.c1ccc2c(NCCCCCCCCCNc3ccnc4ccccc34)ccnc2c1 [TCMDC-137750] | 0.85 | 1.50 | 0.12 | 35.04
26 | Cl.c1ccc2c(NCCCCCCCCNc3ccnc4ccccc34)ccnc2c1 [TCMDC-137751] | 1.02 | 1.15 | 0.16 | 39.31
27 | CC(CO)(CO)NCc1cc2c3ccccc3c(CNC(C)(CO)CO)cc2c2ccccc12.CS(=O)(=O)O [TCMDC-137752] | 4.42 | 7.33 | 0.72 | 71.86
28 | CS(=O)(=O)O.CSc1ccc2ccccc2c1CCNCCCCNCCc1c(SC)ccc2ccccc12 [TCMDC-137763] | 1.01 | 1.82 | 0.41 | 93.38
29 | CC1CCCCN1CCCNc1nc(NCc2ccccc2)c2ccccc2n1 (centres unmarked) [TCMDC-137771] | 7.25 | 14.62 | 0.95 | 38.73
30 | Clc1ccc(Nc2nc3ccc(Cl)cc3nc2Nc2ccc(Cl)cc2)cc1 [TCMDC-137772] | 1.91 | 7.86 | 0.13 | 27.62
31 | COc1cc2ccccc2c(CNCCCCCCNCc2c(OC)c(OC)cc3ccccc23)c1OC.CS(=O)(=O)O [TCMDC-137795] | 0.67 | 4.62 | 1.11 | 13.93
32 | COc1ccc2ccc(OC)c(CNCCCCCCNCc3c(OC)ccc4ccc(OC)cc34)c2c1.CS(=O)(=O)O [TCMDC-137796] | 1.21 | 3.31 | 0.7 | 68.84
33 | COc1ccc2cc(CNCCCCCCNCc3ccc4cc(OC)ccc4c3)ccc2c1.CS(=O)(=O)O [TCMDC-137797] | 0.59 | 1.55 | 0.62 | 35.46
34 | c1cc(C2=N[C@H]3CCCC[C@@H]3N2)ccc1OCCCOc1ccc(C2=N[C@@H]3CCCC[C@H]3N2)cc1 [TCMDC-137803] | 11.5 | 38.02 | 0.73 | 57.55
35 | Nc1nc(N)c2c(ccc3c2ccn3Cc2cccc(F)c2)n1 [TCMDC-137810] | 1.42 | 0.06 | 0.003 | 0.71
36 | Nc1nc(N)c2c(ccc3c2ccn3Cc2ccc(-c3ccccc3)cc2)n1 [TCMDC-137813] | 2.01 | 1.16 | 0.05 | 26.93
37 | CS(=O)(=O)O.FC(F)(F)COc1ccc2ccccc2c1CNCCCCCCNCc1c(OCC(F)(F)F)ccc2ccccc12 [TCMDC-137816] | 1.09 | 1.84 | 0.35 | 27.96
38 | CCCCSc1c(CNCCCCCCNCc2ccc3ccccc3c2SCCCC)ccc2ccccc12.CS(=O)(=O)O [TCMDC-137825] | 0.97 | 2.76 | 1 | 10.43
